These results are taken from paper PMC6048268, “Resveratrol Inhibits Key Steps of Steroid Metabolism in a Human Estrogen-Receptor Positive Breast Cancer Model: Impact on Cellular Proliferation” (Frontiers in Pharmacology, 2018).

One may read the Km as the concentration of substrate that gives half-maximal velocity.

Data set [1] concerns MCF-7 cells. In words: Metabolism of RES in MCF-7 cells (HPLC). As for the experimental part: (§1) After 48 h, the cellular media (100 μl) were mixed with 200 μl ice-cold (-20°C) methanol and subsequently centrifuged (14000 rpm, 5 min). The clear supernatants were then diluted 1:1 with aqueous ammonium acetate buffer (5 mM, pH = 7.4), and 80 μl of the samples were injected onto the HPLC column. […] Calibration of the chromatogram was accomplished using the external standard method.
(§2) The modes of inhibition were subsequently determined from Lineweaver–Burk plots, and the corresponding Ki values were calculated from Dixon plots using GraphPad Prism 6.0.

The test system of data set [2] is MDA-MB-231 cells. Kind of data set: Metabolism of RES in MDA-MB-231 cells (HPLC). As to conditions: for formation of RES metabolite: RES 0–100 μM; for formation of RES metabolite / maximum metabolite formation rate: 48 h; for maximum metabolite formation rate: 25 μM RES. As for the experimental part: as §1, §2
Data set [3] concerns MCF-7 cells. As to conditions: for decrease of native hormone precursor: MCF-7, 100 nM. As for the experimental part: (§3) Briefly, cartridges were preconditioned with 2 × 1.0 ml acetonitrile and 3 × 1.0 ml ammonium acetate buffer (10 mM, pH = 5.0), and the samples were loaded onto the columns. After washing with 1 × 1.0 ml ammonium acetate buffer (10 mM, pH = 5.0) and 2 × 1.0 ml acetonitrile/ammonium acetate buffer (10 mM, pH 5.0) 10:90 (v/v), the analytes were eluted using 2 × 650 μl acetonitrile/ammonium acetate buffer (10 mM, pH = 5.0) 95:5 (v/v) and evaporated until dry. Subsequently, samples were reconstituted in 270 μl acetonitrile/ammonium acetate buffer (10 mM, pH = 5.0) 25:75 (v/v) and stored at -80°C until further LC–HRMS analysis.
(§4) After media collection, cell monolayers were washed five times with 2.0 ml DPBS, detached using 400 μl TrypLE® solution (37°C, 5 min), mixed with 600 μl DPBS and transferred into sample vials. Aliquots of these suspensions (100 μl each) were diluted and counted using the Casy® TT Cell Counter to determine the exact number of cells per sample well. The remaining cell suspensions (900 μl each) were gently centrifuged (1000 rpm, 8 min), and the supernatants were discarded. The cell pellets were subsequently resuspended in 100 μl aqueous ammonium acetate buffer (10 mM, pH = 5.0) and lysed by five freeze-thaw-cycles in liquid nitrogen (3 min each), followed by thawing at ambient temperature. Ammonium acetate buffer (1000 μl) was added, and the suspensions were centrifuged (14000 rpm, 5 min). Subsequently, the supernatants were concentrated using the same SPE protocol as described above. All processed samples were then stored at -80°C until further LC–HRMS analysis. For each condition, three biologically independent experiments were performed; the reported values represent the overall means ± SD of all values.
(§5) LC was performed with an UltiMate 3000 RSLC-series system coupled to a maXis HD ESI-Qq-TOF mass spectrometer (Bruker Corporation, Bremen, Germany). A Phenomenex Luna® 3 μm C18(2) 100 Å LC column (250 mm × 4.6 mm I.D.; Phenomenex, Inc., Torrance, CA, United States), preceded by a Hypersil® BDS-C18 guard column (5 μm, 10 mm × 4.6 mm I.D.; Thermo Fisher Scientific, Inc.) was used for the separation of the analytes at a flow rate of 1.0 ml/min and a temperature of 43°C. […] The ESI ion source settings were as follows: capillary voltage: -4.5 kV; dry gas flow rate: 8.0 l/min N2; nebulizer: 1.0 bar N2; and dry temperature: 200°C. The ion transfer parameters were set to 400 Vpp funnel RF and 300 Vpp multipole RF, the quadrupole ion energy was 8.0 eV, and the collision cell parameters were as follows: collision RF, 1100 Vpp; collision energy, 10.0 eV; transfer time, 38 μs; and pre-pulse storage, 18 μs. In the range of m/z 150–500, full-scan mass spectra were recorded.
as §2

For data set [4], the system named is MDA-MB-231 cells. As to conditions: for decrease of native hormone precursor: MDA-MB-231, 100 nM. As for the experimental part:
as §3, §4, §5, §2

Data set [5] deals with MCF-7 cells. Kind of data set: Cell proliferation, Casy cell counting, MCF-7. It counts as cell-based, human. As to conditions: 48 h; for cell number: 100 nM hormone precursor. As for the experimental part: (§6) MDA-MB-231 and MCF-7 breast cancer cells were purchased from the American Type Culture Collection (ATCC; Manassas, VA, United States) and routinely cultivated at 37°C (95% humidity and 5% CO2) in phenolred-free Dulbecco’s modified Eagle medium F-12 (DMEM/F-12), fortified with 1% PenStrep®-solution and 10% fetal bovine serum (Invitrogen; Thermo Fisher Scientific, Inc., Waltham, MA, United States). All experiments were performed during the exponential growth phase of both cell lines. For the experiments, cells were seeded in 6-well-plates at a density of 1.0 × 10^6 cells per well and allowed to attach for 24 h.
(§7) Prior to cell counting with a Casy® TT Cell Counter (OLS OMNI Life Science, Bremen, Germany), the supernatant medium was removed and cells were detached using 400 μl TrypLe® solution (Invitrogen). All experiments were performed in triplicate, and the data were reported as the means ± standard deviation of all values.

Data set [6] relates to MDA-MB-231 cells. In words: Cell proliferation, Casy cell counting, MDA-MB-231. Type of data set: cell-based, human. As to conditions: 0–100 nM, 48 h, hormone-deprived. As for the experimental part: as §6, §7
For data set [7], the system named is steroid metabolism in MCF-7 cells. In words: Inhibition of steroid metabolism by RES in MCF-7 cells (LC–HRMS). As for the experimental part:
as §3, §4, §5, §2

The conditions of data set [8]: 0.5–5.0 g/day RES for up to 29 days, healthy subjects; ref Brown et al., 2010; cited from earlier work.
The mark [9] stands for this setting: MDA-MB-231, precursor DHEA or E1 0–100 nM, 48 h, Michaelis–Menten.
Setting [10] is: MDA-MB-231, Michaelis–Menten model.
[11] abbreviates: MDA-MB-231, substrate inhibition model.

“And” between values parts separate entries of the source, which are not always exact repeats. Equal values may be shown once. Read-outs that look alike come from different tables or passages of the source.

With `O=C(O)C1OC(Oc2ccc(C=Cc3cc(O)cc(O)c3)cc2)C(O)C(O)C1O` [RES-4G, trans-resveratrol-4′-O-(β-D-glucuronide)], the “formation of RES metabolite” value with MCF-7 cells [1] (RES 0–100 μM, 48 h) is “below the detection limit”; in the data set with MDA-MB-231 cells [2], “below the detection limit”.

Turning to `O=S(=O)(O)Oc1ccc(/C=C/c2cc(O)cc(OS(=O)(=O)O)c2)cc1` [RES-DS, trans-resveratrol-3-O-4′-O-disulfate], in the data set with MDA-MB-231 cells [2], the “formation of RES metabolite” value is “below the detection limit”.

Take `C[C@]12CC[C@H](O)CC1=CC[C@@H]1[C@@H]2CC[C@]2(C)C(=O)CC[C@@H]12` [DHEA, dehydroepiandrosterone]: the figures for the “decrease of native hormone precursor” value in the data set on MCF-7 cells [3] (48 h) and in the data set with MDA-MB-231 cells [4] (48 h) were 54.9% and 26.8%, respectively. Further, the “remaining precursor concentration in the medium” value in the data set with MCF-7 cells [3] (MCF-7, from 100.0 nM, after 48 h) turned out to be 45.1 ± 1.8 nM; in the data set with MDA-MB-231 cells [4] (MDA-MB-231, from 100 nM, after 48 h), 73.2 ± 2.5 nM. Moreover, in the data set on MCF-7 cells [5], the cell number is 2.69 ± 0.24 × 10^6 cells. For the same molecule, the “effect of hormone precursor on cell growth” value in the data set with MDA-MB-231 cells [6] is given as “did not further increase cell growth”.

In the case of `C[C@]12CC[C@@H]3c4ccc(OS(=O)(=O)O)cc4CC[C@H]3[C@@H]1CC[C@@H]2O` [E2-S, 17β-estradiol-3-O-sulfate], the formation rate is 11.8 ± 0.8 fmol/10^6 cells/h in the data set with MCF-7 cells [3] (MCF-7, 100 nM E1, 48 h) and 0.12 ± 0.02 fmol/10^6 cells/h with MDA-MB-231 cells [4] (MDA-MB-231, 100 nM E1, 48 h). For the same molecule, the Vmax in the data set on MCF-7 cells [3] (MCF-7, precursor DHEA or E1 0–100 nM, 48 h, Michaelis–Menten) is 24.7 ± 4.9 fmol/10^6 cells/h and 24.7 ± 4.9^∗ fmol/10^6 cells/h; in the data set with MDA-MB-231 cells [4] (setting [9]), 0.16 ± 0.02 fmol/10^6 cells/h; in data set [7] (MCF-7, 0 μM RES) it was 24.7 ± 4.9 fmol/10^6 cells/h; in data set [7] (MCF-7, 5 μM RES), 6.64 ± 0.58^∗ fmol/10^6 cells/h; in data set [7] (MCF-7, 10 μM RES) it was 2.34 ± 0.19^∗ fmol/10^6 cells/h; in data set [7] (MCF-7, 25 μM RES), 1.01 ± 0.10^∗ fmol/10^6 cells/h. Besides, the Vmax in data set [7] (MCF-7, 50 μM RES) is listed as 0.56 ± 0.01^∗ fmol/10^6 cells/h; in data set [7] (MCF-7, 100 μM RES), 0.27 ± 0.01^∗ fmol/10^6 cells/h. The Michaelis constant (Km) in the data set with MDA-MB-231 cells [4] (setting [9]) turned out to be 0.038 ± 0.0136 µM; in data set [7] (MCF-7, 0 μM RES), 0.104 ± 0.0155 µM; in data set [7] (MCF-7, 5 μM RES) it was 0.106 ± 0.0159 µM; in data set [7] (MCF-7, 10 μM RES) it was 0.0993 ± 0.0128 µM; in data set [7] (MCF-7, 25 μM RES), 0.0949 ± 0.0147 µM; in data set [7] (MCF-7, 50 μM RES), 0.101 ± 0.0112 µM. Further, in data set [7] (MCF-7, 100 μM RES), the Km was 0.0997 ± 0.006 µM.

On to `O=S(=O)(O)Oc1cc(O)cc(/C=C/c2ccc(O)cc2)c1` [RES-3S, trans-resveratrol-3-O-sulfate], for which the “levels of metabolite relative to RES” value in data set [8] is on record as “approximately 10 fold”. In addition, the “fold increase of metabolite formation in MCF-7 compared with MDA-MB-231” value with MCF-7 cells [1] was found to be 150 fold. The “mean maximum formation rate” value in the data set with MCF-7 cells [1] (MCF-7, 48 h) is reported as 340.1 ± 49.4 pmol/10^6 cells/h. For the same molecule, the Vmax in the data set with MCF-7 cells [1] (MCF-7, Michaelis–Menten model) was 468.4 ± 9.9 pmol/10^6 cells/h; in the data set on MCF-7 cells [1] (MCF-7, substrate inhibition model) it was 501.4 ± 17.1 pmol/10^6 cells/h; with MDA-MB-231 cells [2] (setting [10]), 3.25 ± 0.44 pmol/10^6 cells/h; in the data set with MDA-MB-231 cells [2] (setting [11]) it was 4.31 ± 0.97 pmol/10^6 cells/h. In addition, the “reduction in metabolite formation” value with MCF-7 cells [1] (RES up to 100 μM, substrate inhibition) came to 43.2%. In addition, the “maximum metabolite formation rate” value in the data set on MDA-MB-231 cells [2] amounted to 2.28 ± 0.33 pmol/10^6 cells/h.

For `C[C@]12CC[C@@H]3c4ccc(O)cc4CC[C@H]3[C@@H]1CCC2=O` [E1, estrone], the “decrease of native hormone precursor” value turned out to be 12.9% in the data set with MCF-7 cells [3] (48 h) and 12.3% in the data set on MDA-MB-231 cells [4] (48 h). In addition, in the data set on MCF-7 cells [5], the cell number was 3.85 ± 0.36 × 10^6 cells. The same molecule came in with a stimulation of proliferation with MCF-7 cells [5] (100 nM) of 59.8%. The “effect of hormone precursor on cell growth” value in the data set on MDA-MB-231 cells [6] was “did not further increase cell growth”.

`O=C(O)[C@H]1O[C@@H](Oc2cc(O)cc(/C=C/c3ccc(O)cc3)c2)[C@H](O)[C@@H](O)[C@@H]1O` (relative stereo) [RES-3G, trans-resveratrol-3-O-(β-D-glucuronide)]: the “Slope (n)” value in the data set with MCF-7 cells [1] (MCF-7, Hill model) is given as 1.86 ± 0.18. Moreover, the Vmax with MCF-7 cells [1] (MCF-7, Hill model) turned out to be 422.9 ± 38.9 pmol/10^6 cells/h; in the data set on MDA-MB-231 cells [2] (setting [10]) it was 32.8 ± 8.6 pmol/10^6 cells/h; in the data set on MDA-MB-231 cells [2] (setting [11]), 43.4 ± 2.2 pmol/10^6 cells/h. Also, the “maximum metabolite formation rate” value with MDA-MB-231 cells [2] came to 23.9 ± 2.4 pmol/10^6 cells/h.
